Assay results taken from patent US20090291857A1, “METHODS TO IDENTIFY INHIBITORS OF THE UNFOLDED PROTEIN RESPONSE” (THE BOARD OF TRUSTEES OF THE LELAND STANFORD JUNIOR …, priority 2006, published 2009).

Experiments:
IRE1α-cyto = target: T1, IRE1α-cyto (Homo sapiens, UniProt O75460); assay: In vitro IRE1α endonuclease (ribonuclease) assay; assay type: biochemical; conditions: 2.5 μM
T1 construct: purified the full cytosolic portion of IRE1α (His6-IRE1α-cyto) containing both kinase and endonuclease domains; 6x-His; made in house; host or cells: bacteria
T1 sequence (O75460 465-977 limits assumed): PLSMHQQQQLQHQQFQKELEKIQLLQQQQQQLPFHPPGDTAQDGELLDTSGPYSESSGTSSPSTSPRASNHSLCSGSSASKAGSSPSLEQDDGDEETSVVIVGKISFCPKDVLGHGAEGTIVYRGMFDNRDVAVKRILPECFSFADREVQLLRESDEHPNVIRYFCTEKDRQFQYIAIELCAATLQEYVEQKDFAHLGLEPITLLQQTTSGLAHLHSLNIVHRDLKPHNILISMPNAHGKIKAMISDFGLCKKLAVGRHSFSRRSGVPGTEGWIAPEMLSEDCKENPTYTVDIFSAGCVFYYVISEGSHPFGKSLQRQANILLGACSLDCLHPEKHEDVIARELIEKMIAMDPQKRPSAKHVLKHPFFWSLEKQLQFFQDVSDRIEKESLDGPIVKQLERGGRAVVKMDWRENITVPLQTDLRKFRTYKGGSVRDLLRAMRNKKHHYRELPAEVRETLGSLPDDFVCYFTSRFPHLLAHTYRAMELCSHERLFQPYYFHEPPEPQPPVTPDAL
Procedure: The in vitro ribonuclease assays were carried out using purified IRE1α-cyto essentially as described. Gonzalez and Walter, Methods Mol Biol 160: 25-36 (2001); Gonzalez et al., Embo J 18: 3119-3132 (1999). For each reaction, 5 μg purified IRE1α-cyto was incubated with 300 ng of fluorescein-labeled RNA stem-loop substrate at 37° C. in a total volume of 300 μl. Aliquots (50 μl) were withdrawn at the indicated times and mixed with an equal volume of stop solution. Id. Reactions were analyzed by SDS-PAGE using 10-20% acrylamide gradient gels. The sequence for the hXBP-1 3′ RNA stem-loop substrate is as follows: 5′[…] G 3′ (SEQ ID NO: 8). […]
HT1080 cells were exposed to DMSO vehicle (lane 1), irestatin 9389 (2.5 μM; lane 2) for 16 hours or Tm (5 μg/ml; lane 3) for 8 hours. Following treatments, cells were harvested, lysed, and analyzed by immunoblotting using anti-Grp78 antibody (top) or anti-actin (bottom) as a loading control. […] Cell lysates were analyzed by Western immunoblotting using anti-IRE1α (bottom) or anti-phospho-IRE1α antibodies (top). […] Lysates were analyzed by Western blot using antisera specific for phospho-JNK1 (top) or total JNK1 (bottom). […] F. Quantification of RNA cleavage kinetics. […] Samples were analyzed as in (E).
Next we determined whether irestatin 9389 inhibited the endonuclease function of IRE1α. […]

HT1080 tumor xenografts = assay: Immunohistochemical analysis of tumor xenografts; assay type: in vivo, mouse; conditions: three doses, 50 mg/kg
Procedure: Tumor-bearing mice were injected i.p. with hypoxyprobe (50 mg/kg) 1 hour prior to sacrifice. Mice were euthanised under anesthesia by cervical dislocation, and tumors were surgically resected, embedded in OCT compound (Sakura Tissue Tek), and frozen at −80° C. Tumors were sectioned at 8 μm, fixed in 4% paraformaldehyde, and blocked in PBS-4% BSA. Tissue sections were incubated overnight in block solution containing antisera specific for hypoxyprobe (1:250) and cleaved caspase-3 (1:400). Slides were washed three times with block solution and incubated for 2 hours at room temperature with anti-mouse Alexa 488 or anti-rabbit Alexa 594 (Invitrogen, San Diego, Calif.). Slides were washed five times in block solution, and coverslips mounted with Permount supplemented with DAPI.
Immunohistochemical analysis of tumor xenografts. […] D. Quantification of tumor immunohistochemistry. At least 8 randomly chosen fields (>300 cells/field) per tumor were scored for pimonidazole and cleaved caspase-3 staining. A minimum of 3 tumors (250-300 mm^3 at harvest) were analyzed per treatment group. […]
We further examined tumors from control and irestatin-treated mice for differences in cell survival. […] The increase in apoptosis was most pronounced in hypoxic tissue regions of tumors, as determined by co-immunoreactivity for pimonidazole adducts (FIG. 14C, bottom panel). […]

[1] = test system: PANC1 pancreatic adenocarcinoma cells; assay: PANC1 tumor growth in nude mice; assay type: in vivo, mouse; conditions: 60 mg/kg bolus every 48 hours, 5 doses, 5-7 tumors per group
Procedure: Dose: 60 mg/kg ip bolus injection every 48 hours. 5 total doses. 5-7 tumors per group. PANC1 pancreatic adenocarcinoma cell line.
PANC1 pancreatic adenocarcinoma cells were implanted subcutaneously into nude mice. Mice were then given a bolus injection of one of the inventive irestatins (1401, 9337, 3611 or 9389) at a dose of 60 mg/kg every 48 hours for a total of 5 doses, with 5-7 tumors being treated per group.

Cc1csc(NC(=O)CSc2nc3c(c(C(F)(F)F)c2C#N)CCC3)n1 [Compound 9389]
cleavage of XBP-1 RNA substrate by His6-IRE1α-cyto (IRE1α-cyto): strongly inhibited cleavage | cleaved caspase-3 in tumors relative to vehicle (HT1080 tumor xenografts): significant increase | tumor growth [1]: significant tumor growth was observed in untreated mice, but not in mice treated with the irestatins
